Test results: patent US20200009173A1, “TRIAZOLE-CONTAINING MACROLIDES AND OPHTHALMIC USES THEREFOR” (Tetard, Inc., priority 2017, published 2020)
In brackets after ≈: the same amount, converted by molar mass. Where two headings read alike, the source gives them in different places.

What was measured:
[1] = system: P. Acnes; experiment: MICs of solithromycin and comparator drugs against P. acnes; type: cell-based; conditions: for MIC50 / MIC90: Cutibacterium acnes
From the text: EXAMPLE. The formulations described herein show overall higher potency against ocular pathogens than commercial standards. MICs (μg/ml) of Solithromycin and Comparator Drugs against P. Acnes (51 Species)

[2] = system: TNFα; experiment: TNFα production in LPS-stimulated PMA-differentiated U937 cells (ELISA); type: cell-based, human
Description: (§1) EXAMPLE. […] Cells. The human monocytic cell line U937 was obtained from the American Type Culture Collection (ATCC, Rockville, Md.). PBMCs from COPD patients were obtained from Brompton hospital and separated by AccuSPIN (Sigma-Aldrich). […] U937 cells were differentiated into adherent macrophage-like morphology by exposure to PMA (50 ng/ml) for 48 h in complete growth medium. Cell viability was assessed microscopically by trypan blue staining. Cell toxicity was determined by MTT assay as needed. This study was approved by the ethics committee of the Royal Brompton Hospitals, and all subjects gave written informed consent. Cytokine ELISA. TNFα and IL-8 concentrations in the supernatant of cell cultures were determined by sandwich ELISA according to the manufacturer's instructions (R&D Systems Europe, Abingdon, UK). Statistical analysis. The results were expressed as the mean±SEM. Comparisons of data in two groups were performed using the Student's t test or the Wilcoxon signed rank test. Multiple comparisons were made by one-way ANOVA with post hoc test (Dunnett's) as appropriate. The difference was considered significant at p<0.05. […] Anti-inflammatory effects of solithromycin in U937 cells.

[3] = system: CXCL8; experiment: CXCL8 (IL-8) production in LPS-stimulated PMA-differentiated U937 cells (ELISA); type: cell-based, human
Description: as §1

[4] = system: MMP9; experiment: MMP9 activity in PMA-stimulated U937 cells (gelatin zymography); type: cell-based, human
Description: EXAMPLE. […] Cells. The human monocytic cell line U937 was obtained from the American Type Culture Collection (ATCC, Rockville, Md.). PBMCs from COPD patients were obtained from Brompton hospital and separated by AccuSPIN (Sigma-Aldrich). […] U937 cells were differentiated into adherent macrophage-like morphology by exposure to PMA (50 ng/ml) for 48 h in complete growth medium. Cell viability was assessed microscopically by trypan blue staining. Cell toxicity was determined by MTT assay as needed. This study was approved by the ethics committee of the Royal Brompton Hospitals, and all subjects gave written informed consent. Zymography. MMP9 enzyme activity was measured by gelatin zymography. […] After electrophoresis, gels were incubated and rinsed with Novex® zymogram renaturing buffer (Invitrogen) for 30 min at room temperature. The gels were then rinsed in Novex® zymogram developing buffer (Invitrogen) for 30 min at room temperature prior to overnight incubation in the developing buffer at 37° C. After incubation, the gels were stained using a Colloidal Blue Staining Kit (Invitrogen) to visualize the zymogen bands. Statistical analysis. The results were expressed as the mean±SEM. Comparisons of data in two groups were performed using the Student's t test or the Wilcoxon signed rank test. Multiple comparisons were made by one-way ANOVA with post hoc test (Dunnett's) as appropriate. The difference was considered significant at p<0.05.

[5] = system: S. pneumoniae; experiment: MICs of solithromycin and comparator drugs, S. pneumoniae (30 species); type: cell-based; conditions: for MIC50 / MIC90: Streptococcus pneumoniae
From the text: (§2) EXAMPLE. The formulations described herein show overall higher potency against ocular pathogens than commercial standards.
(§3) MICs (μg/ml) of Solithromycin and Comparator Drugs against Bacterial Species

[6] = system: H. influenzae; experiment: MICs of solithromycin and comparator drugs, H. influenzae (30 species); type: cell-based; conditions: for MIC50 / MIC90: Haemophilus influenzae
From the text: as §2, §3

[7] = system: MSSA; experiment: MICs of solithromycin and comparator drugs, MSSA (31 species); type: cell-based; conditions: for MIC50 / MIC90: Staphylococcus aureus, MSSA
From the text: as §2, §3

[8] = system: MSRA; experiment: MICs of solithromycin and comparator drugs, MSRA (30 species); type: cell-based; conditions: for I (intermediate susceptibility) / NS (not susceptible) / S (susceptible): 30 species
From the text: as §2, §3

[9] = system: S. epidermidis; experiment: MICs of solithromycin and comparator drugs, S. epidermidis (30 species); type: cell-based; conditions: for MIC50 / MIC90: Staphylococcus epidermidis
From the text: as §2, §3

[10] = at a higher concentration (333 μM)

With `C=CC1=C(C(=O)O)N2C(=O)[C@@H](NC(=O)/C(=N\O)c3csc(N)n3)[C@H]2SC1` [Cefdinir] the “MIC Range” value [1] was at most 0.015 to 0.12 µg/mL, the MIC50 ([1]; 51 species) was 0.03 µg/mL (≈ 0.0759 µM) and the MIC90 ([1]; 51 species) was 0.12 µg/mL (≈ 0.303 µM).
For `C=CC1=C(C(=O)O)N2C(=O)[C@@H](NC(=O)/C(=N\OCC(=O)O)c3csc(N)n3)[C@H]2SC1` [Cefixime], the “MIC Range” value [1] was at most 0.03 to 0.5 µg/mL, the MIC50 ([1]; 51 species) was 0.25 µg/mL (≈ 0.551 µM) and the MIC90 ([1]; 51 species) was 0.5 µg/mL (≈ 1.1 µM).
With `COCC1=C(C(=O)O)N2C(=O)[C@@H](NC(=O)/C(=N\OC)c3csc(N)n3)[C@H]2SC1` [Cefpodoxime] the “MIC Range” value [1] was at most 0.015 to 2 µg/mL, the MIC50 ([1]; 51 species) was 0.5 µg/mL (≈ 1.17 µM) and the MIC90 ([1]; 51 species) was 2 µg/mL (≈ 4.68 µM).
`CC[C@H]1OC(=O)[C@H](C)[C@@H](O[C@H]2C[C@@](C)(OC)[C@@H](O)[C@H](C)O2)[C@H](C)[C@@H](O[C@@H]2O[C@H](C)C[C@H](N(C)C)[C@H]2O)[C@](C)(OC)C[C@@H](C)C(=O)[C@H](C)[C@@H](O)[C@]1(C)O` [Clarithromycin, clarithromycin] was tested, and the “MIC Range” value [1] was at most 0.015 to 0.5 µg/mL, the MIC50 ([1]; 51 species) was at most 0.015 µg/mL and the MIC90 ([1]; 51 species) was 0.25 µg/mL (≈ 0.334 µM). For the same molecule, the IC50 ([2]; Homo sapiens, U-937, LPS, PMA-differentiated U937 cells, read-out: IC50 on TNFα release) was 426 ± 63.9 µM, the “effect on TNFα production” value [2, 10] was “modest effects” and the IC50 ([3]; Homo sapiens, U-937, LPS, PMA-differentiated U937 cells, read-out: IC50 on CXCL8 release) was 506 ± 44 µM. For the same molecule, the “effect on IL-8 production” value [3, 10] was “modest effects” and the “inhibitory effect on MMP9 activity, lower than solithromycin” value [4] was 10 fold.
For `C[C@H]1c2cccc(O)c2C(=O)C2=C(O)[C@]3(O)C(=O)C(C(N)=O)=C(O)[C@@H](N(C)C)[C@@H]3[C@@H](O)[C@@H]21` [Doxycycline], the “MIC Range” value [1] was at most 0.008 to 1 µg/mL, the MIC50 ([1]; 51 species) was 0.06 µg/mL (≈ 0.135 µM) and the MIC90 ([1]; 51 species) was 0.12 µg/mL (≈ 0.27 µM).
`C[C@H]1COc2c(N3CCN(C)CC3)c(F)cc3c(=O)c(C(=O)O)cn1c23` [Levofloxacin] was tested, and the “MIC Range” value [1] was 0.06 to 2 µg/mL, the MIC50 ([1]; 51 species) was 1 µg/mL (≈ 2.77 µM) and the MIC90 ([1]; 51 species) was 1 µg/mL (≈ 2.77 µM).
For `CC(=O)NC[C@H]1CN(c2ccc(N3CCOCC3)c(F)c2)C(=O)O1` [Linezolid], the “MIC Range” value [1] was at most 0.03 to 0.5 µg/mL, the MIC50 ([1]; 51 species) was 0.25 µg/mL (≈ 0.741 µM) and the MIC90 ([1]; 51 species) was 0.5 µg/mL (≈ 1.48 µM).
`COc1c(N2C[C@@H]3CCCN[C@@H]3C2)c(F)cc2c(=O)c(C(=O)O)cn(C3CC3)c12` [Moxifloxacin] was tested, and the “I (intermediate susceptibility)” value [5] was 0%, the “MIC Range” value [5] was 0.015 to 0.25 µg/mL and the “NS (not susceptible)” value [5] was 0%. The “S (susceptible)” value [5] was 100%, the MIC50 [5] was 0.12 µg/mL (≈ 0.299 µM) and the MIC90 [5] was 0.25 µg/mL (≈ 0.623 µM). For the same molecule, the “I (intermediate susceptibility)” value [6] was 0%, the “MIC Range” value [6] was 0.015 to 0.06 µg/mL and the “NS (not susceptible)” value [6] was 0%. The “S (susceptible)” value [6] was 100%, the MIC50 [6] was 0.03 µg/mL (≈ 0.0747 µM) and the MIC90 [6] was 0.06 µg/mL (≈ 0.149 µM). The “I (intermediate susceptibility)” value [7] was 0%, the “MIC Range” value [7] was 0.015 to 2 µg/mL and the “NS (not susceptible)” value [7] was 6%. The “S (susceptible)” value [7] was 94%, the MIC50 [7] was 0.06 µg/mL (≈ 0.149 µM) and the MIC90 [7] was 0.12 µg/mL (≈ 0.299 µM). The MIC50 [8] was 2 µg/mL (≈ 4.98 µM), the MIC90 [8] was 8 µg/mL (≈ 19.9 µM) and the “I (intermediate susceptibility)” value [8] was 3%. The “NS (not susceptible)” value [8] was 87%, the “S (susceptible)” value [8] was 10% and the “I (intermediate susceptibility)” value [9] was 3%. The “NS (not susceptible)” value [9] was 13%, the “S (susceptible)” value [9] was 83% and the MIC50 [9] was 0.06 µg/mL (≈ 0.149 µM). The MIC90 [9] was 4 µg/mL (≈ 9.96 µM).
`CC[C@H]1OC(=O)[C@H](C)C(=O)[C@H](C)[C@@H](O[C@@H]2O[C@H](C)C[C@H](N(C)C)[C@H]2O)[C@](C)(OC)C[C@@H](C)C(=O)[C@H](C)[C@H]2N(CCCCn3cnc(-c4cccnc4)c3)C(=O)O[C@]12C` [Telithromycin] was tested, and the “effect on TNFα production” value ([2]; at 100 μM) was “did not inhibit”, the “effect on CXCL8 production” value ([3]; at 100 μM) was “did not inhibit” and the IC50 ([4]; Homo sapiens, U-937) was 97.9 µM.
`NC[C@H]1O[C@H](O[C@H]2[C@H](O)[C@@H](O[C@H]3O[C@H](CO)[C@@H](O)[C@H](N)[C@H]3O)[C@H](N)C[C@@H]2N)[C@H](N)C[C@@H]1O` [Tobramycin] was tested, and the “MIC Range” value [5] was 4 to 16 µg/mL, the MIC50 [5] was 16 µg/mL (≈ 34.2 µM) and the MIC90 [5] was 16 µg/mL (≈ 34.2 µM). For the same molecule, the “MIC Range” value [6] was 2 to 8 µg/mL, the MIC50 [6] was 4 µg/mL (≈ 8.56 µM) and the MIC90 [6] was 4 µg/mL (≈ 8.56 µM). For the same molecule, the “I (intermediate susceptibility)” value [7] was 0%, the “MIC Range” value [7] was 0.12 to 4 µg/mL and the “NS (not susceptible)” value [7] was 0%. For the same molecule, the “S (susceptible)” value [7] was 100%, the MIC50 [7] was 0.5 µg/mL (≈ 1.07 µM) and the MIC90 [7] was 0.5 µg/mL (≈ 1.07 µM). For the same molecule, the MIC50 [8] was 1 µg/mL (≈ 2.14 µM), the MIC90 [8] was over 64 µg/mL and the “I (intermediate susceptibility)” value [8] was 3%. The “NS (not susceptible)” value [8] was 30%, the “S (susceptible)” value [8] was 67% and the “I (intermediate susceptibility)” value [9] was 3%. For the same molecule, the “MIC Range” value [9] was 0.12 to 64 µg/mL, the “NS (not susceptible)” value [9] was 23% and the “S (susceptible)” value [9] was 73%. For the same molecule, the MIC50 [9] was 0.5 µg/mL (≈ 1.07 µM) and the MIC90 [9] was 32 µg/mL (≈ 68.4 µM).
In the case of `CN[C@H](CC(C)C)C(=O)N[C@H]1C(=O)N[C@@H](CC(N)=O)C(=O)N[C@H]2C(=O)N[C@H]3C(=O)N[C@H](C(=O)N[C@H](C(=O)O)c4cc(O)cc(O)c4-c4cc3ccc4O)[C@H](O)c3ccc(c(Cl)c3)Oc3cc2cc(c3O[C@@H]2O[C@H](CO)[C@@H](O)[C@H](O)[C@H]2O[C@H]2C[C@](C)(N)[C@H](O)[C@H](C)O2)Oc2ccc(cc2Cl)[C@H]1O` [Vancomycin], the “MIC Range” value ([1]; 51 species) is reported as 0.12 to 1 µg/mL, the MIC50 ([1]; 51 species) is reported as 1 µg/mL (≈ 0.69 µM) and the MIC90 ([1]; 51 species) is reported as 1 µg/mL (≈ 0.69 µM).
For `CC[C@H]1OC(=O)[C@H](C)[C@@H](O[C@H]2C[C@@](C)(OC)[C@@H](O)[C@H](C)O2)[C@H](C)[C@@H](O[C@@H]2O[C@H](C)C[C@H](N(C)C)[C@H]2O)[C@](C)(O)C[C@@H](C)C(=O)[C@H](C)[C@@H](O)[C@]1(C)O` [erythromycin], the “effect on TNFα production” value ([2]; concentration not given) was “did not inhibit”, the “effect on IL-8 production” value ([3]; concentration not given) was “did not inhibit” and the “effect on MMP9 activity” value [4] was “no effect”.
